The SangsterLogP compilation

Assay: from Savola, J.; Ruskoaho, H.; Salonen, J.; Puurunen, J.; Karjalainen, A.; Kurkela, K.; Karki, N. (1988). Cardiovascular and sedative alpha-adrenoceptor effects of detomidine-like arylalkylimidazoles and …
Conditions: pH 7.4
With `Cc1ccccc1Cc1c[nH]cn1` the logD was 2.13.
`Cc1cccc(C)c1CCc1c[nH]cn1` gave a logD of 2.73.
`Cc1cccc(C)c1CCCc1c[nH]cn1` showed a logD of 2.87.
In the case of `Cc1cccc(C)c1CCCCc1c[nH]cn1`, the logD is reported as 3.3.
With `Cc1cccc(Cc2c[nH]cn2)c1` the logD was 2.21.
With `Cc1ccc(Cc2c[nH]cn2)c(C)c1` the logD was 2.52.
With `Cc1cccc(C)c1Cc1ccccn1` the logD was 3.48.
For `Cc1cccc(C)c1-c1c[nH]cn1`, the logD was 2.38.
`Cc1cccc(C)c1Cc1cnc[nH]1` gave a logD of 2.54.
Compound `Cc1cccc(Cc2c[nH]cn2)c1C` has a logD of 2.5.
`Cc1ccc(Cc2c[nH]cn2)cc1C` showed a logD of 2.54.
Work on `Cc1cccc(C)c1CCn1ccnc1` yielded a logD of 2.51.
With `Cc1cccc(C)c1/C=C/c1c[nH]cn1` the logD was 3.35.
For `Cc1ccc(C)c(Cc2c[nH]cn2)c1`, the logD was 2.54.
Compound `Cc1cccc(C)c1CCc1ncc[nH]1` has a logD of 2.2.
`Cc1cc(C)cc(Cc2c[nH]cn2)c1` gave a logD of 2.34.
